According to ChEMBL document CHEMBL6103613 (J Med Chem, 2025):
Converted amounts (≈) assume the structure as drawn. The source made the active and inactive calls. The rule behind the calls is not given here.

How the values were obtained:
[1] = tested on: Enterococcus gallinarum; assay: Antimicrobial activity against Enterococcus gallinarum ATCC 49573 assessed as inhibition of visible bacterial growth incubated for 18 hrs by CLSI based analysis; format: functional
[2] = tested on: Staphylococcus aureus; assay: Antibacterial activity against methicillin-resistant Staphylococcus aureus infected in kunming mouse peritonitis model assessed as reduction in bacterial colonies in spleen at 5 mg/kg, ip measured upto 8 days; format: functional, organism-based; settings: time <= 8.0 day
[3] = tested on: Cell membrane; assay: Induction of cell membrane depolarization in Staphylococcus aureus assessed as increase in fluorescence intensity at 1 to 8 times MIC by DiOC2 (3) dye based assay; format: subcellular
[4] = tested on: Staphylococcus aureus; assay: Upregulation of superoxide dismutase expression in Staphylococcus aureus at 12.5 microg/ml incubated for 3 hrs by RNA sequencing analysis; format: functional; settings: dose 12.5 µg/ml
[5] = tested on: Staphylococcus aureus; assay: Antimicrobial activity against Staphylococcus aureus ATCC 25923 incubated for 1 hr in presence of PE; format: functional
[6] = tested on: Staphylococcus aureus; assay: Inhibition of biofilm formation in Staphylococcus aureus at 1 to 16 times MIC by hochest33342/PI staining based analysis; format: functional
[7] = tested on: Candida albicans; assay: Antifungal activity against Candida albicans assessed as reduction in fungal growth incubated for 18 hrs by CLSI based analysis; format: functional
[8] = Toxicity in kunming mouse assessed as effect on lung morphology at 5 mg/kg, ip; format: organism-based; settings: in vivo
[9] = Hemolytic activity against mouse Red blood cells at 100 microg/ml incubated for 1 hr relative to control; format: toxicity, cell-based, Erythrocyte; settings: at 100 µg/mL, read-out: Activity
[10] = tested on: Staphylococcus aureus; assay: Antimicrobial activity against Staphylococcus aureus assessed as inhibition of visible bacterial growth incubated for 18 hrs by CLSI based analysis; format: functional
[11] = tested on: Peptidoglycan; assay: Binding affinity to Staphylococcus aureus peptidoglycan assessed as change in enthalpy by ITC analysis
[12] = tested on: Staphylococcus aureus; assay: Antimicrobial activity against Staphylococcus aureus ATCC 25923 incubated for 1 hr in presence of PG; format: functional
[13] = tested on: Staphylococcus aureus; assay: Antibacterial activity against methicillin-resistant Staphylococcus aureus infected in kunming mouse pneumonia model assessed as decrease in TNF-alpha expression in lung at 5 mg/kg, ip measured upto 8 days; format: functional, organism-based; settings: time <= 8.0 day
[14] = Toxicity in mouse assessed as organ damage by measuring thickened alveolar wall in lungs at 5 mg/kg, ip measured upto 8 days; format: organism-based; settings: in vivo, 192 h, time < 8 day
[15] = tested on: Staphylococcus aureus; assay: Antimicrobial activity against Staphylococcus aureus at pH 5.4 to 6.4 incubated for 0.5 hrs; format: functional, organism-based
[16] = tested on: Staphylococcus aureus; assay: Antimicrobial activity against Staphylococcus aureus at 100 degreeC incubated for 0.5 hrs; format: functional, organism-based
[17] = tested on: Staphylococcus aureus; assay: Antimicrobial activity against methicillin-resistant Staphylococcus aureus clinical isolate 3 assessed as inhibition of visible bacterial growth incubated for 18 hrs by CLSI based analysis; format: functional
[18] = Toxicity in mouse assessed as heart damage at 50 mg/kg, ip measured for 7 days by H and E staining based analysis; format: organism-based; settings: in vivo, 168 h, time 7 day
[19] = tested on: Staphylococcus aureus; assay: Antimicrobial activity against Staphylococcus aureus incubated for 0.5 hrs in presence of Fe2+; format: functional, organism-based
[20] = Therapeutic index, ratio of HC5 for hemolytic activity in mouse Red blood cell to MIC for antimicrobial activity against Staphylococcus aureus ATCC 25923 assessed as inhibition of visible bacterial growth; format: toxicity, cell-based, RBC; settings: red blood cells, read-out: TI
[21] = tested on: RAW264.7; assay: Cytotoxicity against mouse RAW264.7 cells assessed as cell viability at 6.25 to 100 microg/ml incubated for 24 hrs by MTT assay; format: toxicity, cell-based; settings: raw264.7, 24 h
[22] = Toxicity in mouse assessed as kidney damage at 50 mg/kg, ip measured for 7 days by H and E staining based analysis; format: organism-based; settings: in vivo, 168 h, time 7 day
[23] = tested on: Staphylococcus aureus; assay: Upregulation of fmtA expression in Staphylococcus aureus at 12.5 microg/ml incubated for 3 hrs by RNA sequencing analysis; format: functional; settings: dose 12.5 µg/ml
[24] = tested on: Staphylococcus aureus; assay: Antimicrobial activity against methicillin-resistant Staphylococcus aureus clinical isolate 2 assessed as inhibition of visible bacterial growth incubated for 18 hrs by CLSI based analysis; format: functional
[25] = tested on: Staphylococcus aureus; assay: Upregulation of catalase expression in Staphylococcus aureus at 12.5 microg/ml incubated for 3 hrs by RNA sequencing analysis; format: functional, organism-based; settings: dose 12.5 µg/ml
[26] = tested on: Staphylococcus aureus; assay: Upregulation of ahpC6 expression in Staphylococcus aureus at 12.5 microg/ml incubated for 3 hrs by RNA sequencing analysis; format: functional; settings: dose 12.5 µg/ml
[27] = Toxicity in mouse assessed as liver damage at 50 mg/kg, ip measured for 7 days by H and E staining based analysis; format: organism-based; settings: in vivo, 168 h, time 7 day
[28] = tested on: Staphylococcus aureus; assay: Antibacterial activity against methicillin-resistant Staphylococcus aureus infected in kunming mouse peritonitis model assessed as reduction in bacterial colonies in kidney at 5 mg/kg, ip measured upto 8 days; format: functional, organism-based; settings: time <= 8.0 day
[29] = tested on: Staphylococcus epidermidis; assay: Antimicrobial activity against Staphylococcus epidermidis ATCC 12228 assessed as inhibition of visible bacterial growth incubated for 18 hrs by CLSI based analysis; format: functional
[30] = Toxicity in mouse assessed as spleen damage at 50 mg/kg, ip measured for 7 days by H and E staining based analysis; format: organism-based; settings: in vivo, 168 h, time 7 day
[31] = tested on: Staphylococcus aureus; assay: Induction of ROS production in Staphylococcus aureus assessed as increase in fluorescence intensity at 4 times MIC by DCFH-DA probe based assay; format: functional, organism-based
[32] = Toxicity in mouse assessed as change in water intake at 50 mg/kg, ip measured for 7 days; format: organism-based; settings: in vivo, 168 h, time 7 day
[33] = tested on: Staphylococcus aureus; assay: Antibacterial activity against methicillin-resistant Staphylococcus aureus infected in kunming mouse pneumonia model assessed as reduction in colony count in lung at 5 mg/kg, ip measured upto 8 days; format: functional, organism-based; settings: time <= 8.0 day
[34] = tested on: Staphylococcus aureus; assay: Antimicrobial activity against Staphylococcus aureus incubated for 0.5 hrs in presence of Fe3+; format: functional, organism-based
[35] = tested on: Staphylococcus aureus; assay: Antibacterial activity against methicillin-resistant Staphylococcus aureus infected in kunming mouse pneumonia model assessed as decrease in IL-10 expression in lung at 5 mg/kg, ip measured upto 8 days; format: functional, organism-based; settings: time <= 8.0 day
[36] = tested on: Staphylococcus aureus; assay: Upregulation of SgtB expression in Staphylococcus aureus at 12.5 microg/ml incubated for 3 hrs by RNA sequencing analysis; format: functional; settings: dose 12.5 µg/ml
[37] = tested on: Staphylococcus aureus; assay: Inhibition of biofilm formation in Staphylococcus aureus at 1 to 16 times MIC by crystal violet staining based analysis; format: functional
[38] = tested on: Staphylococcus aureus; assay: Antibacterial activity against methicillin-resistant Staphylococcus aureus infected in kunming mouse peritonitis model assessed as reduction in bacterial colonies in lung at 5 mg/kg, ip measured upto 8 days; format: functional, organism-based; settings: time <= 8.0 day
[39] = tested on: Bacillus subtilis; assay: Antimicrobial activity against Bacillus subtilis ATCC 23875 assessed as inhibition of visible bacterial growth incubated for 18 hrs by CLSI based analysis; format: functional
[40] = tested on: Enterococcus faecium; assay: Antimicrobial activity against vancomycin-resistant Enterococcus faecium assessed as inhibition of visible bacterial growth incubated for 18 hrs by CLSI based analysis; format: functional
[41] = Toxicity in mouse assessed as lung damage at 50 mg/kg, ip measured for 7 days by H and E staining based analysis; format: organism-based; settings: in vivo, 168 h, time 7 day
[42] = tested on: Cell membrane; assay: Disruption of cell membrane integrity in Staphylococcus aureus at 4 times of MIC incubated for 1 mins by Propidium iodide staining based analysis; format: subcellular
[43] = tested on: Staphylococcus aureus; assay: Antibacterial activity against methicillin-resistant Staphylococcus aureus infected in kunming mouse peritonitis model assessed as reduction in bacterial colonies in blood at 5 mg/kg, ip measured upto 8 days; format: functional, organism-based; settings: time <= 8.0 day
[44] = tested on: Staphylococcus aureus; assay: Upregulation of LiaF expression in Staphylococcus aureus at 12.5 microg/ml incubated for 3 hrs by RNA sequencing analysis; format: functional; settings: dose 12.5 µg/ml

For `CC(C)[C@@H]1NC(=O)[C@@H](C(C)C)NC(=O)[C@H](C(C)C)NC(=O)[C@@H](CCCCN)NC(=O)[C@H](Cc2c(C(c3ccccc3)(c3ccccc3)c3ccccc3)[nH]c3ccccc23)NC(=O)[C@@H](C(C)C)NC(=O)[C@@H]2CSC1N2`, the MIC [1] was 12.5 µg/mL (≈ 12 µM), the Activity [2] was “Active” and the Activity [3] was “Dose-dependent-effect”. For the same compound, the Activity [4] was “Active”, the MIC [5] was > 50 µg/mL and the “inhibition (INH)” value [6] was ~100%. The MIC [7] was 3.13 µg/mL (≈ 3.01 µM), the Activity [8] was “Non-toxic” and the hemolysis at 1 h, 100 microg/ml [9] was < 5%. The MIC [10] was 3.13 µg/mL (≈ 3.01 µM), the deltaH [11] was 3.87 kJ/mol and the MIC [12] was > 50 µg/mL. For the same compound, the Activity [13] was “Active”, the Activity [14] was “Non-toxic” and the Activity [15] was “Active”. For the same compound, the Activity [16] was “Active”, the MIC [17] was 12.5 µg/mL (≈ 12 µM) and the Activity [18] was “Non-toxic”. For the same compound, the Activity [19] was “Active”, the selectivity ratio [20] was > 16 and the Activity [21] was “Non-toxic”. For the same compound, the Activity [22] was “Non-toxic”, the Activity [23] was “Active” and the MIC [24] was 6.25 µg/mL (≈ 6.01 µM). The Activity [25] was “Active”, the Activity [26] was “Active” and the Activity [27] was “Non-toxic”. For the same compound, the Activity [28] was “Active”, the MIC [29] was 6.25 µg/mL (≈ 6.01 µM) and the Activity [30] was “Non-toxic”. For the same compound, the Activity [31] was “Active”, the Activity [32] was “Non-toxic” and the Activity [33] was “Active”. The Activity [34] was “Active”, the Activity [35] was “Active” and the Activity [36] was “Active”. For the same compound, the “inhibition (INH)” value [37] was ~100%, the Activity [38] was “Active” and the MIC [39] was 6.25 µg/mL (≈ 6.01 µM). The MIC [40] was 12.5 µg/mL (≈ 12 µM), the Activity [41] was “Non-toxic” and the Activity [42] was 26.2%. For the same compound, the Activity [43] was “Active” and the Activity [44] was “Active”.
